In BindingDB's records for PubMed 15050915 (Novartis Institutes for BioMedical Research) one finds IC50 data, which are given here for one compound.

The nature of this experiment: Inhibition of PDK1 (unknown origin).

For orientation: IC50 means the concentration at which inhibition is half-maximal. The low end stands for inhibition by little substance, the high end for a need for much substance. `Nc1ncnc2c1c(-c1cccc(OCc3ccccc3)c1)cn2[C@H]1C[C@@H](CN2CCC2)C1`: the midpoint of inhibition, the IC50, lay at 4.8 µM.
